Data taken from US20230201870A1, “PLASMA COATING METHOD AND APPARATUS FOR BIOLOGICAL SURFACE MODIFICATION” (MOLECULAR PLASMA GROUP S.A., priority 2020, published 2023).
Where two headings read alike, the source gives them in different places.

Columns and labels:
Type in all cases: cell-based
[1] = test system: Escherichia coli (gram-negative); assay: Antibacterial activity of plasma-coated material (OECD guideline, ISO 22197/20743), gram-negative; conditions: E. coli
Bacteriophage MS2 = assay: Viral load reduction test (ASTM E2721-16, MS2 in place of Influenza A) on plasma-coated substrate
[2] = test system: Staphylococcus aureus (gram-positive); assay: Antibacterial activity of plasma-coated material (OECD guideline, ISO 22197/20743), gram-positive; conditions: S. aureus
[3] = PPNW substrate (polypropylene nonwoven, 25 g/m^2)
[4] = synthetic textile substrate (Tyvek)
[5] = plasma coating from precursor on Tyvek substrate, MS2 phages, vs untreated control, LOD = limit of detection

Compound | % Gram-bacteria reduced [1, 3] [%] | Gram-log reduction [1, 3] [log] | % Gram-bacteria reduced [1, 4] [%] | Gram-log reduction [1, 4] [log] | LOG Reduction (Bacteriophage MS2; [5]) | %Gram+ bacteria reduced [2, 3] [%] | Gram+ log reduction [2, 3] [log] | %Gram+ bacteria reduced [2, 4] [%] | Gram+ log reduction [2, 4] [log] | LOG Reduction (Bacteriophage MS2)
O=C(O)CC(O)(CC(=O)O)C(=O)O [Citric acid] | > 99.999 | > 5.0 | 97.5 | 1.6 | > 5.0 (LOD) log | > 99.995 | > 4.3 | > 99.98 | > 3.8 | –
C=C(C)C(=O)OCCN(C)C [DIMAEMA, 2-(N,N-dimethylamino)ethyl methacrylate] | > 99.9996 | > 5.4 | 20.6 | 0.1 | – | > 99.994 | > 4.2 | > 99.95 | > 3.3 | –
C=CC(=O)NCCC[N+](C)(C)C.[Cl-] [APTAC, (3-Acrylamidopropyl)trimethylammonium chloride] | – | – | – | – | 2.1 log | – | – | – | – | –
CCCCCCCCCCCCCCCCCC[N+](C)(C)CCC[Si](OC)(OC)OC.[Cl-] [SiQAM, Dimethyloctadecyl[3-(trimethoxysilyl)propyl] ammonium chloride solution] | > 99.9996 | > 5.4 | > 98.7 | > 1.9 | 1.56 log | > 99.994 | > 4.2 | > 99.95 | > 3.3 | –
Benzalkonium chloride [reference compound] | – | 5.4 | – | 1.9 | – | > 99.994 | > 4.2 | > 99.5 | > 3.3 | > 3.8 (LOD) log
